Type in all cases: cell-based
Test [1] relates to Streptococcus agalactia B group. The test is described as follows: microbe, parasite or virus in culture. Particulars: Streptococcus; 37° C., 24 hours; read-out: MIC values of in vitro antibacterial test results.
The subject of test [2] is Staphylococcus aureus 703(MRSA). Nature of the test: microbe, parasite or virus in culture. The following applies: Staphylococcus aureus, MRSA, 24 h, read-out: MIC values of in vitro antibacterial test results.
For test [3], the system named is Enterococcus faecalis F2518(VRE). The test is described as follows: microbe, parasite or virus in culture. The following applies: Enterococcus faecalis, VRE, 24 h, read-out: MIC values of in vitro antibacterial test results.
The test system of test [4] is Streptococcus pneumoniae 10351. The test is described as follows: microbe, parasite or virus in culture. Particulars: Streptococcus pneumoniae, 10351; 37° C., 24 hours; read-out: MIC values of in vitro antibacterial test results.
For test [5], the system named is Staphylococcus aureus 43300(MRSA). Nature of the test: microbe, parasite or virus in culture. The following applies: Staphylococcus aureus, MRSA, 24 h, read-out: MIC values of in vitro antibacterial test results.
Test [6] has as its system Bacillus anthracis Bacillus 1. The test is described as follows: microbe, parasite or virus in culture. Particulars: Bacillus anthracis, 24 h, read-out: MIC values of in vitro antibacterial test results.
Test [7] concerns Clostridium perfringens. Nature of the test: microbe, parasite or virus in culture. Particulars: Clostridium perfringens, 24 h, read-out: MIC values of in vitro antibacterial test results.
Test [8] has as its system F2518(VRE), Staphylococcus aureus resistant strain 43300(MRSA), 703 (MRSA), pneumococcal resistance bacteria 6303(PRSP). The test is described as follows: microbe, parasite or virus in culture. Particulars: read-out: MIC values (μM).
For test [9], the system named is Enterococcus faecalis 29212. The test is described as follows: microbe, parasite or virus in culture. Particulars: Enterococcus faecalis, 29212; 37° C., 24 hours; read-out: MIC values of in vitro antibacterial test results.
For test [10], the system named is Bacillus subtilis 168. Nature of the test: microbe, parasite or virus in culture. The following applies: Bacillus subtilis, 168; 37° C., 24 hours; read-out: MIC values of in vitro antibacterial test results.
Test [11] deals with Peel fungus. The test is described as follows: organism not typed. The following applies: 37° C., 24 hours; read-out: MIC values of in vitro antibacterial test results.
The subject of test [12] is Diphtheria bacilli. The test is described as follows: organism not typed. The following applies: 37° C., 24 hours; read-out: MIC values of in vitro antibacterial test results.
The test system of test [13] is Streptococcus pneumoniae M2. The test is described as follows: microbe, parasite or virus in culture. The following applies: Streptococcus pneumoniae, M2; 37° C., 24 hours; read-out: MIC values of in vitro antibacterial test results.
Test [14] relates to Oral Candida. Nature of the test: microbe, parasite or virus in culture. The following applies: Candida.
The test system of test [15] is Staphylococcus aureus 29231. Nature of the test: microbe, parasite or virus in culture. The following applies: Staphylococcus aureus, 29231; 37° C., 24 hours; read-out: MIC values of in vitro antibacterial test results.
For test [16], the system named is Streptococcus pneumoniae 6303 (PRSP). Nature of the test: microbe, parasite or virus in culture. Particulars: Streptococcus pneumoniae, PRSP, 24 h, read-out: MIC values of in vitro antibacterial test results.
The test system of test [17] is Bacillus cereus 2. The test is described as follows: microbe, parasite or virus in culture. Particulars: Bacillus cereus, 2; 37° C., 24 hours; read-out: MIC values of in vitro antibacterial test results.
The mark [18] stands for this setting: 37° C., 24 hours, read-out: MIC values of in vitro antibacterial test results.

SMILES strings stand for the structures. Where two headings read alike, the source gives them in different places.

For `CC(=O)Oc1ccc(-c2cc([O-])n3nc(C)c(-c4ccc(F)cc4F)c3n2)cc1.[Na+]` [Compound 13, Sodium 5-(4-acetoxyphenyl)-3-(2,4-difluorophenyl)-2-methylpyrazolo[1,5-α]pyrimidin-7-olate], the MIC in test [1] was above 150 µg/mL; in test [2], below 150 µg/mL; in [3] it was below 150 µg/mL; in test [4], above 150 µg/mL; in test [5] it was below 100 µg/mL; in test [6], above 150 µg/mL. In addition, the MIC in test [7] was above 150 µg/mL; in test [8], below 100 µg/mL; in [9] it was below 150 µg/mL; in test [10] it was above 150 µg/mL; in test [11] it was below 150 µg/mL; in [12], above 150 µg/mL. In addition, the MIC is below 100 µg/mL in [13]; below 100 µg/mL in test [14] (read-out: MIC values (μM)); below 100 µg/mL in [14] (setting [18]); above 150 µg/mL in test [15]; above 150 µg/mL in test [16]; below 150 µg/mL in [17].

As for `Cc1nn2c([O-])cc(-c3ccc(C(F)(F)F)nc3)nc2c1-c1ccc(F)cc1F.[K+]` [Compound 26, Potassium 3-(2,4-difluorophenyl)-2-methyl-5-(6-(trifluoromethyl)pyridin-3-yl)pyrazolo[1,5-α]pyrimidin-7-olate], the MIC in test [1] was below 150 µg/mL; in test [2], below 100 µg/mL; in [3], below 150 µg/mL; in [4], below 150 µg/mL; in [5], below 100 µg/mL; in test [6] it was above 150 µg/mL. Besides, the MIC in test [7] is above 150 µg/mL; in test [8], below 100 µg/mL; in test [9], below 100 µg/mL; in [10], below 100 µg/mL; in test [11], below 150 µg/mL; in [12], above 150 µg/mL. The MIC in test [13] is below 150 µg/mL; in test [14] (read-out: MIC values (μM)), below 100 µg/mL; in [14] (setting [18]), below 100 µg/mL; in test [15], below 100 µg/mL; in [16] it was below 150 µg/mL; in test [17], below 100 µg/mL.

`Cc1nn2c([O-])cc(-c3ccc([N+](=O)[O-])nc3)nc2c1-c1ccc(F)cc1F.[Na+]` [Compound 16, sodium 3-(2,4-difluorophenyl)-2-methyl-5-(6-nitropyridin-3-yl)pyrazolo[1,5-α]pyrimidin-7-olate]: the MIC was above 150 µg/mL in [1]; below 100 µg/mL in test [2]; below 150 µg/mL in test [3]; below 100 µg/mL in [4]; below 150 µg/mL in test [5]; above 150 µg/mL in test [6]. The MIC was above 150 µg/mL in test [7]; below 100 µg/mL in [8]; below 100 µg/mL in [9]; below 150 µg/mL in test [10]; above 150 µg/mL in test [11]; above 150 µg/mL in test [12]. Moreover, the MIC in [13] was below 150 µg/mL; in test [14] (read-out: MIC values (μM)), below 100 µg/mL; in [14] (setting [18]), below 100 µg/mL; in [15], below 100 µg/mL; in test [16], below 100 µg/mL; in test [17], below 100 µg/mL.

On to `Cc1nn2c([O-])cc(-c3ccc(S(N)(=O)=O)nc3)nc2c1-c1ccc(F)cc1F.[Na+]` [Compound 29, Sodium 3-(2,4-difluorophenyl)-2-methyl-5-(6-sulfamoylpyridin-3-yl)pyrazolo[1,5-α]pyrimidin-7-olate], for which the MIC in test [1] is above 150 µg/mL; in test [2], below 150 µg/mL; in test [3] it was below 150 µg/mL; in test [4], above 150 µg/mL; in test [5], below 100 µg/mL; in test [6], above 150 µg/mL. In addition, the MIC in [7] was above 150 µg/mL; in test [8], below 100 µg/mL; in test [9], below 150 µg/mL; in test [10], above 150 µg/mL; in test [11], below 150 µg/mL; in test [12], above 150 µg/mL. Besides, the MIC in test [13] is below 100 µg/mL; in test [14] (read-out: MIC values (μM)), below 100 µg/mL; in [14] (setting [18]), below 100 µg/mL; in [15], above 150 µg/mL; in [16], above 150 µg/mL; in test [17] it was below 150 µg/mL.

Turning to `Cc1nn2c([O-])cc(-c3ccc(C(N)=O)nc3)nc2c1-c1ccc(F)cc1F.[Na+]` [Compound 32], the MIC in test [1] was above 150 µg/mL; in [2] it was below 150 µg/mL; in test [3], below 150 µg/mL; in test [4], above 150 µg/mL; in [5], below 100 µg/mL; in [6] it was above 150 µg/mL. Further, the MIC in test [7] is above 150 µg/mL; in test [8], below 100 µg/mL; in test [9], below 150 µg/mL; in [10], above 150 µg/mL; in test [11], below 150 µg/mL; in [12], above 150 µg/mL. Besides, the MIC in test [13] is below 100 µg/mL; in test [14] (read-out: MIC values (μM)), below 100 µg/mL; in [14] (setting [18]), below 100 µg/mL; in test [15], above 150 µg/mL; in test [16] it was below 150 µg/mL; in [17], below 100 µg/mL.

`Cc1nn2c([O-])cc(-c3ccc(N(C)C)cc3)nc2c1-c1ccc(F)cc1F.[K+]` [Compound 24, Potassium 3-(2,4-difluorophenyl)-5-(4-(dimethylamino)phenyl)-2-methylpyrazolo[1,5-α]pyrimidin-7-olate]: the MIC in test [1] was above 150 µg/mL; in test [2], below 100 µg/mL; in [3], below 150 µg/mL; in [4], below 100 µg/mL; in [5], below 150 µg/mL; in [6], above 150 µg/mL. Further, the MIC in [7] is below 150 µg/mL; in [8], below 100 µg/mL; in test [9], below 100 µg/mL; in [10], below 100 µg/mL; in [11], below 150 µg/mL; in test [12] it was above 150 µg/mL. For the same compound, the MIC in [13] was below 100 µg/mL; in [14] (read-out: MIC values (μM)) it was below 100 µg/mL; in test [14] (setting [18]), below 100 µg/mL; in test [15] it was below 100 µg/mL; in [16], below 150 µg/mL; in test [17] it was below 100 µg/mL.

`Cc1nn2c([O-])cc(-c3ccc(C(=O)NCCN(C)C)cc3)nc2c1-c1ccc(F)cc1F.[Na+]` [Compound 31, Sodium 3-(2,4-difluorophenyl)-5-(4-((2-(dimethylamino)ethyl)carbamoyl)phenyl)-2-methylpyrazolo[1,5-α]pyrimidin-7-olate]: the MIC in test [1] is above 150 µg/mL; in test [2] it was below 100 µg/mL; in [3], below 150 µg/mL; in test [4], below 100 µg/mL; in test [5] it was below 150 µg/mL; in test [6], above 150 µg/mL. Also, the MIC in [7] was above 150 µg/mL; in [8], below 100 µg/mL; in test [9], below 100 µg/mL; in [10], below 100 µg/mL; in [11] it was above 150 µg/mL; in test [12] it was above 150 µg/mL. Also, the MIC in [13], in test [14] (read-out: MIC values (μM)), in [14] (setting [18]), in test [15], in [16] and in test [17] was below 100 µg/mL in each case.

Take `Cc1nn2c([O-])cc(-c3ccc(N(C)C)nc3)nc2c1-c1ccc(F)cc1F.[Na+]` [Compound 18, Sodium 3-(2,4-difluorophenyl)-5-(6-(dimethylamino)pyridin-3-yl)-2-methylpyrazolo[1,5-α]pyrimidin-7-olate]: the MIC in [1] was above 150 µg/mL; in test [2], below 150 µg/mL; in [3], below 150 µg/mL; in [4] it was above 150 µg/mL; in test [5], below 100 µg/mL; in test [6], above 150 µg/mL. The MIC in test [7] was above 150 µg/mL; in test [8] it was below 100 µg/mL; in [9] it was below 150 µg/mL; in [10], above 150 µg/mL; in [11] it was below 150 µg/mL; in [12] it was above 150 µg/mL. Moreover, the MIC in test [13] is below 100 µg/mL; in test [14] (setting [18]), above 150 µg/mL; in [15], above 150 µg/mL; in test [16], above 150 µg/mL; in test [17], below 100 µg/mL.

The values above are taken from US20210094954A1, “PREPARATION METHODS AND APPLICATIONS OF 3,5-DISUBSTITUTED METHYLPYRAZOLO[1,5-A]PYRIMIDINE-7-HYDROXYLIC SALTS” (priority 2019, published 2021).
